Results as given in US20020164617A1, “Affinity selection-based screening of hydrophobic proteins” (NeoGenesis Pharmaceuticals, Inc., priority 2000, published 2002).

Experiments:
[1] = target: T1, m2 mAChR-G∀i1∃1(2-GDP complex (Sus scrofa, UniProt P06199)); assay: 3H-NMS binding assay by the method of Rinken and Haga
T1 construct: made in house

m2 mAChR = target: T2, m2 mAChR (Sus scrofa, UniProt P06199); assay: as above; conditions: m2 mAChR alone, without accessory protein; read-out: apparent Kd
T2 construct: made in house
T2 sequence (P06199 1-466): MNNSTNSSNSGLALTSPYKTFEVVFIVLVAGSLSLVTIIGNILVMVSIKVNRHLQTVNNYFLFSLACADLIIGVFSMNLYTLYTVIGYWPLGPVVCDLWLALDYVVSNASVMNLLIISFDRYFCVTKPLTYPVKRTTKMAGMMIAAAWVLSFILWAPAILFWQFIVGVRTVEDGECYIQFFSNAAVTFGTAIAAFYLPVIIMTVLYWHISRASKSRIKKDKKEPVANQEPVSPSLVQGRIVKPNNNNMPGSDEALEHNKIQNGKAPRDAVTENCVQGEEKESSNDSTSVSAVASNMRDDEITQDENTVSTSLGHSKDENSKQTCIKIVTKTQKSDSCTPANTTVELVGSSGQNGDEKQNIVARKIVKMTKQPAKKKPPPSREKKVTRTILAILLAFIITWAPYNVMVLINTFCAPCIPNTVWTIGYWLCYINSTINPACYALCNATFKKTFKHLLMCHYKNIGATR

T1 sequence (P63096 whole entry partner, one chain of several): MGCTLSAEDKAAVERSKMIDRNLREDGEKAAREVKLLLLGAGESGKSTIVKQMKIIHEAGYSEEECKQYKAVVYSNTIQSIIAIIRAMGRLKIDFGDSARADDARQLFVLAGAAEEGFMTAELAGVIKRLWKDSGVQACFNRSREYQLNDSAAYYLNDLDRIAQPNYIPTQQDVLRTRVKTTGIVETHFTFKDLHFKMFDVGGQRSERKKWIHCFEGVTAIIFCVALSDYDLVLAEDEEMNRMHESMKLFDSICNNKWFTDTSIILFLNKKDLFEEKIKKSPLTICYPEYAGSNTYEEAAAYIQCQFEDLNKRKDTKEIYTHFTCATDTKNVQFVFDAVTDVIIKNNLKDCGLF
T1 sequence (P62873 whole entry partner, one chain of several): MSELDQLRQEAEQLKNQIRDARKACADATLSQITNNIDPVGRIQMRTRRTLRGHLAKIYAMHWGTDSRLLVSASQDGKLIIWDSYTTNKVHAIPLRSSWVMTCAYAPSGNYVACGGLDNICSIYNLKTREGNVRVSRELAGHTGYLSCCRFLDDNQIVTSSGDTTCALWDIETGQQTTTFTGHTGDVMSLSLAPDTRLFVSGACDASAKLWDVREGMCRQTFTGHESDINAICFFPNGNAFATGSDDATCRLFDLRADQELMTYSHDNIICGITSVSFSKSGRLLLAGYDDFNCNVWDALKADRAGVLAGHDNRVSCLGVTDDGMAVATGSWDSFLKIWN
T1 sequence (P59768 2-68 partner limits assumed, one chain of several): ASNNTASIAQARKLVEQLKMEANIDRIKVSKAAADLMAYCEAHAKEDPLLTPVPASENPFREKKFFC

In the case of C[N+]1(C)[C@@H]2C[C@@H](OC(=O)[C@H](CO)c3ccccc3)C[C@H]1[C@@H]1O[C@@H]12 [3H-NMS, N-methylscapolamine], the Kd ([1]; m2 mAChR with G protein heterotrimer-GDP as accessory protein) is reported as 432 nM, the “enhancement of affinity of m2 mAChR in presence of accessory protein complex” value ([1]; with vs without G∀i1∃1(2-GDP complex)) is reported as 5 fold and the Kd (m2 mAChR) is reported as 0.17 nM.
